Measured values: patent US20090036448A1, “PYRIMIDINE DERIVATIVES AND METHODS OF TREATMENT RELATED TO THE USE THEREOF” (TAISHO PHARMECUTICAL CO., LTD., priority 2004, published 2009)

Each compound was assayed against MCH receptor (Homo sapiens, UniProt Q99705) (assay: Receptor binding assay with Radiolabelled MCH Ligand). Settings: class by percent of control at 10^-7 M or IC50.
Design: expressed in transfected cells; host or cells: 293 cells (human kidney, ATCC), transient transfection; crude membranes
How it was run: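 This was a filtration radioligand displacement assay: compounds, first tested at 1 and 0.1 μM and then over a range, inhibited binding of a labelled MCH ligand to transfected 293-cell membranes at room temperature for 60–120 min. Specific binding excluded a cold-MCH nonspecific signal. Ki was derived from IC50 via Cheng-Prusoff, using an independently measured KD.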

Sequence of MCH receptor (Q99705 whole entry): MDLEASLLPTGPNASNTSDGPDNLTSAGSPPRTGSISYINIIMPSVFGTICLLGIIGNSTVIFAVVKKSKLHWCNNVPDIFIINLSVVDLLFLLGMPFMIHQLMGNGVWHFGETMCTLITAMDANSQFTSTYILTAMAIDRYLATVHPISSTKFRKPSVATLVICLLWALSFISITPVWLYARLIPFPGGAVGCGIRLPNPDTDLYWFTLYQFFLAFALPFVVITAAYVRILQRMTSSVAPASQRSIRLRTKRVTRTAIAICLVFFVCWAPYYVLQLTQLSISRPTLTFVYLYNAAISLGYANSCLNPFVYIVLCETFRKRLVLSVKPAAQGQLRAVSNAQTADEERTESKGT

Compound | class
Cc1nc(N[C@H]2CC[C@@H](NC(=O)Cc3c[nH]c4ccc(OCc5ccccc5)cc34)CC2)cc(N(C)C)n1 [compound 318] | 3 (Class 3: The value of percent of control at 10^−7 M was more than 60% or the value of IC50 was more than 200 nM.)
Cc1cccc(NC(=O)c2ccccc2C(=O)N[C@H]2CC[C@@H](Nc3cc(N(C)C)nc(C)n3)CC2)c1 [compound 319] | 3 (Class 3: The value of percent of control at 10^−7 M was more than 60% or the value of IC50 was more than 200 nM.)
Cc1nc(N[C@H]2CC[C@@H](NC(=O)c3cccc4c(=O)c(C)c(-c5ccccc5)oc34)CC2)cc(N(C)C)n1 [compound 320] | 3 (Class 3: The value of percent of control at 10^−7 M was more than 60% or the value of IC50 was more than 200 nM.)
Cc1nc(N[C@H]2CC[C@@H](NC(=O)c3ccccc3C(=O)c3cc(C(F)(F)F)cc(C(F)(F)F)c3)CC2)cc(N(C)C)n1 [compound 322] | 3 (Class 3: The value of percent of control at 10^−7 M was more than 60% or the value of IC50 was more than 200 nM.)
Cc1nc(N[C@H]2CC[C@@H](NC(=O)c3ccccc3C(=O)c3sc4ccccc4c3C)CC2)cc(N(C)C)n1 [compound 323] | 3 (Class 3: The value of percent of control at 10^−7 M was more than 60% or the value of IC50 was more than 200 nM.)
Cc1nc(N[C@H]2CC[C@@H](NC(=O)c3ccc4c(c3)C(=O)c3ccccc3-4)CC2)cc(N(C)C)n1 [compound 324] | 3 (Class 3: The value of percent of control at 10^−7 M was more than 60% or the value of IC50 was more than 200 nM.)
Cc1nc(N[C@H]2CC[C@@H](NC(=O)c3ccccc3-c3ccccc3)CC2)cc(N(C)C)n1 [compound 325] | 3 (Class 3: The value of percent of control at 10^−7 M was more than 60% or the value of IC50 was more than 200 nM.)
Cc1nc(N[C@H]2CC[C@@H](NC(=O)c3ccc(Oc4ccccc4)cc3)CC2)cc(N(C)C)n1 [compound 326] | 3 (Class 3: The value of percent of control at 10^−7 M was more than 60% or the value of IC50 was more than 200 nM.)
Cc1nc(N[C@H]2CC[C@@H](NC(=O)C3c4ccccc4Oc4ccccc43)CC2)cc(N(C)C)n1 [compound 327, N-(cis-4-{[6-(dimethylamino)-2-methylpyrimidin-4-yl]amino}cyclohexyl)-9H-xanthene-9-carboxamide] | 3 (Class 3: The value of percent of control at 10^−7 M was more than 60% or the value of IC50 was more than 200 nM.)
Cc1nc(N[C@H]2CC[C@@H](NC(=O)c3ccccc3C(=O)N[C@@H](C)c3ccccc3)CC2)cc(N(C)C)n1 [compound 328] | 3 (Class 3: The value of percent of control at 10^−7 M was more than 60% or the value of IC50 was more than 200 nM.)
Cc1nc(N[C@H]2CC[C@@H](NC(=O)c3ccc(OCc4ccccc4)cc3)CC2)cc(N(C)C)n1 [compound 329] | 3 (Class 3: The value of percent of control at 10^−7 M was more than 60% or the value of IC50 was more than 200 nM.)
Cc1ccc(C(=O)c2ccccc2C(=O)N[C@H]2CC[C@@H](Nc3cc(N(C)C)nc(C)n3)CC2)cc1 [compound 330] | 3 (Class 3: The value of percent of control at 10^−7 M was more than 60% or the value of IC50 was more than 200 nM.)
Cc1nc(N[C@H]2CC[C@@H](NC(=O)c3ccccc3COc3ccccc3)CC2)cc(N(C)C)n1 [compound 331, N-(cis-4-{[6-(dimethylamino)-2-methylpyrimidin-4-yl]amino}cyclohexyl)-[(2-phenyloxy)methyl]benzamide] | 3 (Class 3: The value of percent of control at 10^−7 M was more than 60% or the value of IC50 was more than 200 nM.)
Cc1nc(N[C@H]2CC[C@@H](NC(=O)c3ccccc3C(=O)Nc3cccc4ccccc34)CC2)cc(N(C)C)n1 [compound 332] | 3 (Class 3: The value of percent of control at 10^−7 M was more than 60% or the value of IC50 was more than 200 nM.)
Cc1nc(N[C@H]2CC[C@@H](NC(=O)c3ccc4cc5ccccc5cc4c3)CC2)cc(N(C)C)n1 [compound 333] | 3 (Class 3: The value of percent of control at 10^−7 M was more than 60% or the value of IC50 was more than 200 nM.)
CCCCCCCc1ccc(-c2ccc(C(=O)N[C@H]3CC[C@@H](Nc4cc(N(C)C)nc(C)n4)CC3)cc2)cc1 [compound 334] | 3 (Class 3: The value of percent of control at 10^−7 M was more than 60% or the value of IC50 was more than 200 nM.)
Cc1nc(N[C@H]2CC[C@@H](NC(=O)Cc3sc(-c4ccccc4)nc3-c3ccc(Cl)cc3)CC2)cc(N(C)C)n1 [compound 335] | 3 (Class 3: The value of percent of control at 10^−7 M was more than 60% or the value of IC50 was more than 200 nM.)
Cc1nc(N[C@H]2CC[C@@H](NC(=O)CSCc3ccccc3)CC2)cc(N(C)C)n1 [compound 336] | 3 (Class 3: The value of percent of control at 10^−7 M was more than 60% or the value of IC50 was more than 200 nM.)
Cc1nc(N[C@H]2CC[C@@H](NC(=O)CCCc3ccccc3)CC2)cc(N(C)C)n1 [compound 337] | 3 (Class 3: The value of percent of control at 10^−7 M was more than 60% or the value of IC50 was more than 200 nM.)
Cc1nc(N[C@H]2CC[C@@H](NC(=O)Cc3csc4ccccc34)CC2)cc(N(C)C)n1 [compound 338] | 3 (Class 3: The value of percent of control at 10^−7 M was more than 60% or the value of IC50 was more than 200 nM.)

Compound | class
Cc1nc(N[C@H]2CC[C@@H](NC(=O)CC3Cc4ccccc4C3)CC2)cc(N(C)C)n1 [compound 339] | 3 (Class 3: The value of percent of control at 10^−7 M was more than 60% or the value of IC50 was more than 200 nM.)
COc1ccc(CCCC(=O)N[C@H]2CC[C@@H](Nc3cc(N(C)C)nc(C)n3)CC2)cc1OC [compound 340] | 3 (Class 3: The value of percent of control at 10^−7 M was more than 60% or the value of IC50 was more than 200 nM.)
Cc1nc(N[C@H]2CC[C@@H](NC(=O)CCCc3ccc4c(c3)OCCO4)CC2)cc(N(C)C)n1 [compound 341] | 3 (Class 3: The value of percent of control at 10^−7 M was more than 60% or the value of IC50 was more than 200 nM.)
Cc1ccc(S(=O)(=O)n2ccc(C(=O)N[C@H]3CC[C@@H](Nc4cc(N(C)C)nc(C)n4)CC3)c2)cc1 [compound 342] | 3 (Class 3: The value of percent of control at 10^−7 M was more than 60% or the value of IC50 was more than 200 nM.)
Cc1nc(N[C@H]2CC[C@@H](NC(=O)c3ccc(S(C)(=O)=O)cc3)CC2)cc(N(C)C)n1 [compound 343] | 3 (Class 3: The value of percent of control at 10^−7 M was more than 60% or the value of IC50 was more than 200 nM.)
CC(=O)c1ccc(C(=O)N[C@H]2CC[C@@H](Nc3cc(N(C)C)nc(C)n3)CC2)s1 [compound 344] | 3 (Class 3: The value of percent of control at 10^−7 M was more than 60% or the value of IC50 was more than 200 nM.)
CSc1sc(C(=O)N[C@H]2CC[C@@H](Nc3cc(N(C)C)nc(C)n3)CC2)c(Cl)c1S(=O)(=O)C(C)C [compound 345] | 3 (Class 3: The value of percent of control at 10^−7 M was more than 60% or the value of IC50 was more than 200 nM.)
Cc1nc(N[C@H]2CC[C@@H](NC(=O)c3ccc(S(C)(=O)=O)s3)CC2)cc(N(C)C)n1 [compound 346] | 3 (Class 3: The value of percent of control at 10^−7 M was more than 60% or the value of IC50 was more than 200 nM.)
Cc1nc(N[C@H]2CC[C@@H](NC(=O)c3ccc(-c4cnco4)cc3)CC2)cc(N(C)C)n1 [compound 347] | 3 (Class 3: The value of percent of control at 10^−7 M was more than 60% or the value of IC50 was more than 200 nM.)
Cc1nc(N[C@H]2CC[C@@H](NC(=O)c3cn(S(=O)(=O)c4ccccc4)c4ccccc34)CC2)cc(N(C)C)n1 [compound 348] | 3 (Class 3: The value of percent of control at 10^−7 M was more than 60% or the value of IC50 was more than 200 nM.)
Cc1nc(N[C@H]2CC[C@@H](NC(=O)C(=O)c3ccccc3)CC2)cc(N(C)C)n1 [compound 349] | 3 (Class 3: The value of percent of control at 10^−7 M was more than 60% or the value of IC50 was more than 200 nM.)
Cc1cc(C)c(C(=O)C(=O)N[C@H]2CC[C@@H](Nc3cc(N(C)C)nc(C)n3)CC2)c(C)c1 [compound 350] | 3 (Class 3: The value of percent of control at 10^−7 M was more than 60% or the value of IC50 was more than 200 nM.)
Cc1nc(N[C@H]2CC[C@@H](NC(=O)C3C[C@@H](c4ccccc4)CC[C@H]3C(=O)c3ccccc3)CC2)cc(N(C)C)n1 (stereo partly drawn) [compound 351] | 3 (Class 3: The value of percent of control at 10^−7 M was more than 60% or the value of IC50 was more than 200 nM.)
Cc1nc(N[C@H]2CC[C@@H](NC(=O)C=C3c4ccccc4-c4ccccc43)CC2)cc(N(C)C)n1 [compound 352] | 3 (Class 3: The value of percent of control at 10^−7 M was more than 60% or the value of IC50 was more than 200 nM.)
Cc1nc(N[C@H]2CC[C@@H](NCc3ccc4c(c3)C(=O)c3ccccc3C4=O)CC2)cc(N(C)C)n1 [compound 353] | 3 (Class 3: The value of percent of control at 10^−7 M was more than 60% or the value of IC50 was more than 200 nM.)
Cc1nc(N[C@H]2CC[C@@H](NCc3ccccc3)CC2)cc(N(C)C)n1 [compound 354] | 3 (Class 3: The value of percent of control at 10^−7 M was more than 60% or the value of IC50 was more than 200 nM.)
Cc1nc(N[C@H]2CC[C@@H](NCc3ccc(-c4ccccc4)cc3)CC2)cc(N(C)C)n1 [compound 355] | 3 (Class 3: The value of percent of control at 10^−7 M was more than 60% or the value of IC50 was more than 200 nM.)
Cc1nc(N[C@H]2CC[C@@H](NCc3ccc(C(C)(C)C)cc3)CC2)cc(N(C)C)n1 [compound 356] | 3 (Class 3: The value of percent of control at 10^−7 M was more than 60% or the value of IC50 was more than 200 nM.)
Cc1nc(N[C@H]2CC[C@@H](NCc3cc4ccccc4s3)CC2)cc(N(C)C)n1 [compound 357] | 3 (Class 3: The value of percent of control at 10^−7 M was more than 60% or the value of IC50 was more than 200 nM.)
